From patent publication US20240199623A1 (ILDONG PHARMACEUTICAL CO., LTD., priority 2020, published 2024) come the findings set out here.

Molecules are shown by their SMILES.

This assay deals with human wild type-CFTR (Homo sapiens, UniProt P13569). As to the kind of experiment: Cell-based YFP assay. Set-up: expressed in transfected cells; host or cells: CHO-K1 (Chinese hamster ovary). The conditions noted are these: CHO-K1 cells expressing human wild type-CFTR and YFP-H148Q/I152L; forskolin 20 μM = 100% activity; read-out: Cell-based YFP Assay (EC50) Concentration Range. The protocol: Forskolin (Tocris cat. #1099), Dimethyl sulfoxide (Sigma cat. #D4540), FLUO star Omega microplate reader (BMG Labtech, Ortenberg, Germany), MARS Data Analysis Software (BMG Labtech), GraphPad Prism 5 (GraphPad Software, Inc.) Chinese hamster ovary (CHO-K1) cells expressing human wild type-CFTR and halide sensor YFP-H148Q/I152L were constructed and grown in Dulbecco's modified Eagle's medium (DMEM) supplemented with 10% FBS, 2 mM glutamine, 100 units/ml penicillin and 100 μg/ml streptomycin. Chinese hamster ovary (CHO-K1) cells expressing human wild type-CFTR and halide sensor YFP-H148Q/I152L were seeded in 96-well microplate with 2×10^4 cells/well and incubated in 37° C., 48 hours. Then, each well was washed 3 times with PBS and 100 μL PBS was added in each well. […] YFP fluorescence signal affected by I^− ion influx through CFTR channel was measured in 37° C., FLUO star Omega microplate reader according to the following steps: • i) basal 2 seconds; • ii) 140 mM I^− solution 100 μL addition to each well; • iii) YFP fluorescence signal measurement start after 6 seconds; and • iv) following 14 seconds signal detection in every 0.4 seconds periods. […] Experiments were performed in triplicates and the data was averaged. EC50 values were calculated with MARS Data Analysis Software (BMG Labtech) and GraphPad Prism 5.
Sequence of human wild type-CFTR (P13569 whole entry): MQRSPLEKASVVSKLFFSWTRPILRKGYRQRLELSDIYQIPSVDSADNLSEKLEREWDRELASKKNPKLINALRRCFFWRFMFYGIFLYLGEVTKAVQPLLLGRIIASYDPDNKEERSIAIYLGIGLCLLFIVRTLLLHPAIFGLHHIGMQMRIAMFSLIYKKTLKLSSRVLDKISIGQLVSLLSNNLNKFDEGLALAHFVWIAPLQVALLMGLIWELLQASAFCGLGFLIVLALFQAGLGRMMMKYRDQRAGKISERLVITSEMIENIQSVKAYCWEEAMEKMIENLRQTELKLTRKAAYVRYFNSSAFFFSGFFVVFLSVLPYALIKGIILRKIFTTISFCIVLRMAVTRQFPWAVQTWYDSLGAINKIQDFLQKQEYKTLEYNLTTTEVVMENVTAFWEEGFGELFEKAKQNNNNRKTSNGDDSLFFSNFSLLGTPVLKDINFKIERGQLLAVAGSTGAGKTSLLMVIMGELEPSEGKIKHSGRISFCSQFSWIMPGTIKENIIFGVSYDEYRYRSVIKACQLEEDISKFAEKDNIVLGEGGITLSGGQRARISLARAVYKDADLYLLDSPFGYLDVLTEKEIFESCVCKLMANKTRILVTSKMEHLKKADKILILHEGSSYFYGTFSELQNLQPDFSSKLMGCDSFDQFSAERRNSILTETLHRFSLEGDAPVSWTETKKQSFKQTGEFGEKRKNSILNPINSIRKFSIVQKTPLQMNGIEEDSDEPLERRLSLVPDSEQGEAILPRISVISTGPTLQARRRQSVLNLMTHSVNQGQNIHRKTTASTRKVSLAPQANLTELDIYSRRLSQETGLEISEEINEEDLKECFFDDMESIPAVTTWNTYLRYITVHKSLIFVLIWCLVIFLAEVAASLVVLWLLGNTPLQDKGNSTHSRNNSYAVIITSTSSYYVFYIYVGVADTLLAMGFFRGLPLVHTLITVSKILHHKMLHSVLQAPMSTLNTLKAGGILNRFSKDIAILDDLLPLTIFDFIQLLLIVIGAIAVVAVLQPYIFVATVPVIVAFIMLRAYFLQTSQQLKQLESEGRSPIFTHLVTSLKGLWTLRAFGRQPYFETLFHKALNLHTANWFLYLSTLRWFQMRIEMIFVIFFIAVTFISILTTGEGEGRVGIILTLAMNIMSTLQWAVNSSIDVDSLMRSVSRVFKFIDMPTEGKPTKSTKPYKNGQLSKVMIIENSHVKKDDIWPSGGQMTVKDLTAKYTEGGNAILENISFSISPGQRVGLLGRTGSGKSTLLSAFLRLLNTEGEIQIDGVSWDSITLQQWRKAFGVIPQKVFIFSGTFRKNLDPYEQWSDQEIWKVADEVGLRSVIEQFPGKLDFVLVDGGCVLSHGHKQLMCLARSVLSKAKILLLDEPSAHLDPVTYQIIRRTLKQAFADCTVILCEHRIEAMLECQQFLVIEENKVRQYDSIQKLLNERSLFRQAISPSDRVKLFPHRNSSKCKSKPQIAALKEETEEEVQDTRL

Consider `COC(=O)c1cc2nccc(-c3ccc(OC)c(OC)c3)n2n1` [Compound 4], for which the EC50 fell in the range of 0.2 to 2 µM.
With `COc1ccc(-c2ccnc3cc(C(=O)O)nn23)cc1OC` [Compound 5, 7-(3,4-dimethoxyphenyl)pyrazolo[1,5-a]pyrimidine-2-carboxylic acid] the figure was at least 2 µM.
As to `CCOc1ccc(NC(=O)c2cc3nccc(-c4ccc(OC)cc4)n3n2)cc1` [Compound 13, N-(4-ethoxyphenyl)-7-(4-methoxyphenyl)pyrazolo [1,5-a]pyrimidine-2-carboxamide], the EC50 is 0.2 to 2 µM.
With `CCOC(=O)CNC(=O)c1cc2nccc(-c3ccc(OC)c(OC)c3)n2n1` [Compound 20, ethyl (7-(3,4-dimethoxyphenyl)pyrazolo [1,5-a]pyrimidine-2-carbonyl) glycinate] the figure was 0.2 to 2 µM; with `COc1ccc(-c2ccnc3cc(C(=O)NCC(=O)O)nn23)cc1OC` [Compound 22, (7-(3,4-dimethoxyphenyl)pyrazolo[1,5-a]pyrimidine-2-carbonyl) glycine], at least 2 µM.
With `COC(=O)c1ccc(NC(=O)c2cc3nccc(-c4ccc(OC)cc4)n3n2)cc1` [Compound 23, methyl 4-(7-(4-methoxyphenyl)pyrazolo[1,5-a]pyrimidine-2-carboxamido)benzoate] the figure was at least 2 µM; with `CCOc1ccc(NC(=O)c2cc3nccc(-c4cccc(OC)c4)n3n2)cc1` [Compound 24, N-(4-ethoxyphenyl)-7-(3-methoxyphenyl)pyrazolo [1,5-a]pyrimidine-2-carboxamide], at least 2 µM.
In the case of `COC(=O)c1ccc(NC(=O)c2cc3nccc(-c4cccc(OC)c4)n3n2)cc1` [Compound 25, methyl 4-(7-(3-methoxyphenyl)pyrazolo [1,5-a]pyrimidine-2-carboxamido) benzoate] it was at least 2 µM; in that of `CCOC(=O)C1(NC(=O)c2cc3nccc(-c4ccc(OC)c(OC)c4)n3n2)CC1` [Compound 26, ethyl 1-(7-(3,4-dimethoxyphenyl)pyrazolo [1,5-a]pyrimidine-2-carboxamido) cyclopropane-1-carboxylate], 0.2 to 2 µM; in that of `COc1ccc(-c2ccnc3cc(C(=O)NC4CCC(N(C)C)CC4)nn23)cc1OC` (stereo not drawn) [Compound 27, 7-(3,4-dimethoxyphenyl)-N-(4-(dimethylamino)cyclohexyl) pyrazolo[1,5-a]pyrimidine-2-carboxamide], at least 2 µM.
On to `COc1ccc(-c2ccnc3cc(C(=O)NC4(C(=O)O)CC4)nn23)cc1OC` [Compound 29, 1-(7-(3,4-dimethoxyphenyl)pyrazolo[1,5-a]pyrimidine-2-carboxamido) cyclopropane-1-carboxylic acid], for which the EC50 was at least 2 µM.
In the case of `COc1ccc(-c2ccnc3cc(C(=O)Nc4ccc(C(=O)NCC(=O)O)cc4)nn23)cc1OC` [Compound 30, (4-(7-(3,4-dimethoxyphenyl)pyrazolo[1,5-a]pyrimidine-2-carboxamido)benzoyl)glycine] it was at least 2 µM; in that of `COc1ccc(-c2ccnc3cc(C(=O)Nc4ccc(OCC(=O)O)cc4)nn23)cc1OC` [Compound 35, 2-(4-(7-(3,4-dimethoxyphenyl)pyrazolo[1,5-a]pyrimidine-2-carboxamido)phenoxy)acetic acid], at least 2 µM.
In the case of `O=C(Nc1ccc(O)cc1)c1cc2nccc(-c3ccc(O)c(O)c3)n2n1` [Compound 38, 7-(3,4-dihydroxyphenyl)-N-(4-hydroxyphenyl)pyrazolo [1,5-a]pyrimidine-2-carboxamide] it was 0.2 to 2 µM; in that of `COC(=O)c1ccc(NC(=O)c2cc3nccc(-c4ccc(Cl)c(Cl)c4)n3n2)cc1` [Compound 40, methyl 4-(7-(3,4-dichlorophenyl)pyrazolo [1,5-a]pyrimidine-2-carboxamido) benzoate], at least 2 µM.
In the case of `COc1ccc(-c2ccnc3cc(C(=O)Nc4ccc(C(=O)N[C@@H](C)C(=O)O)cc4)nn23)cc1OC` [Compound 44, (4-(7-(3,4-dimethoxyphenyl)pyrazolo[1,5-a]pyrimidine-2-carboxamido)benzoyl)-L-alanine] it was 0.2 to 2 µM.
With `COc1ccc(-c2ccnc3cc(C(=O)Nc4ccc(C(=O)N[C@@H](CO)C(=O)O)cc4)nn23)cc1OC` [Compound 45, (4-(7-(3,4-dimethoxyphenyl)pyrazolo[1,5-a]pyrimidine-2-carboxamido)benzoyl)-L-serine], the EC50 was at least 2 µM.
`COc1ccc(-c2ccnc3cc(C(=O)Nc4ccc(C(=O)N[C@@H](Cc5ccccc5)C(=O)O)cc4)nn23)cc1OC` [Compound 49, (4-(7-(3,4-dimethoxyphenyl)pyrazolo[1,5-a]pyrimidine-2-carboxamido)benzoyl)-L-phenylalanine]: the EC50 was 0.2 to 2 µM.
With `COc1ccc(-c2ccnc3cc(C(=O)Nc4ccc(C(=O)N5CCC[C@H]5C(=O)O)cc4)nn23)cc1OC` [Compound 50, (4-(7-(3,4-dimethoxyphenyl)pyrazolo[1,5-a]pyrimidine-2-carboxamido)benzoyl)-L-proline] the figure was at least 2 µM.
Consider `COc1ccc(-c2ccnc3cc(C(=O)Nc4ccc(C(=O)NCCO)cc4)nn23)cc1OC` [Compound 53, 7-(3,4-dimethoxyphenyl)-N-(4-((2-hydroxyethyl)carbamoyl)phenyl)pyrazolo[1,5-a] pyrimidine-2-carboxamide], for which the EC50 was 0.2 to 2 µM.
In the case of `COc1ccc(-c2ccnc3cc(C(=O)Nc4cccc(C(N)=O)c4)nn23)cc1OC` [Compound 54, N-(3-carbamoylphenyl)-7-(3,4-dimethoxyphenyl)pyrazolo [1,5-a]pyrimidine-2-carboxamide] it was 0.2 to 2 µM; in that of `COC(=O)[C@H](CCSC)NC(=O)c1ccc(NC(=O)c2cc3nccc(-c4ccc(OC)c(OC)c4)n3n2)cc1` [Compound 59, methyl (4-(7-(3,4-dimethoxyphenyl)pyrazolo [1,5-a]pyrimidine-2-carboxamido)benzoyl)-L-methioninate], below 0.2 µM.
Take `COC(=O)C[C@H](NC(=O)c1ccc(NC(=O)c2cc3nccc(-c4ccc(OC)c(OC)c4)n3n2)cc1)C(=O)OC` [Compound 60, dimethyl (4-(7-(3,4-dimethoxyphenyl)pyrazolo [1,5-a]pyrimidine-2-carboxamido)benzoyl)-L-aspartate]: the EC50 is below 0.2 µM.
With `COc1ccc(-c2ccnc3cc(C(=O)N4CCOCC4)nn23)cc1OC` [Compound 61, (7-(3,4-dimethoxyphenyl)pyrazolo[1,5-a]pyrimidine-2-yl) (morpholino)methanone] the figure was at least 2 µM; with `COC(=O)[C@@H](C)NC(=O)c1ccc(NC(=O)c2cc3nccc(-c4ccc(OC)c(OC)c4)n3n2)cc1` [Compound 64, methyl (4-(7-(3,4-dimethoxyphenyl)pyrazolo[1,5-a]pyrimidine-2-carboxamido)benzoyl)-D-alaninate], below 0.2 µM; with `COc1ccc(-c2ccnc3cc(C(=O)NN4CCN(C)CC4)nn23)cc1OC` [Compound 68, 7-(3,4-dimethoxyphenyl)-N-(4-methylpiperazin-1-yl) pyrazolo[1,5-a]pyrimidine-2-carboxamide], at least 2 µM.
As for `COC(=O)c1ccc(NC(=O)c2cc3nccc(-c4ccc5c(c4)OCCO5)n3n2)cc1` [Compound 70, methyl 4-(7-(2,3-dihydrobenzo[b][1,4]dioxin-6-yl)pyrazolo[1,5-a]pyrimidine-2-carboxamido)benzoate], the EC50 is at least 2 µM.
In the case of `COc1ccc(-c2ccnc3cc(C(=O)N[C@H]4CC[C@@H](C(N)=O)CC4)nn23)cc1OC` [Compound 71, N-((1S,4S)-4-carbamoylcyclohexyl)-7-(3,4-dimethoxyphenyl)pyrazolo [1,5-a]pyrimidine-2-carboxamide] it was at least 2 µM; in that of `COc1ccc(-c2ccnc3cc(C(=O)N[C@H]4CC[C@H](C(N)=O)CC4)nn23)cc1OC` [Compound 74, N-((1R,4R)-4-carbamoylcyclohexyl)-7-(3,4-dimethoxyphenyl)pyrazolo [1,5-a]pyrimidine-2-carboxamide], at least 2 µM.
With `COc1ccc(-c2ccnc3cc(C(=O)Nc4cccc(C(=O)N5CCNCC5)c4)nn23)cc1OC` [Compound 80, 7-(3,4-dimethoxyphenyl)-N-(3-(piperazine-1-carbonyl)phenyl)pyrazolo [1,5-a]pyrimidine-2-carboxamide] the figure was at least 2 µM; with `COc1ccc(-c2ccnc3cc(C(=O)N[C@H]4CC[C@@H](C(=O)N5CCNCC5)CC4)nn23)cc1OC` [Compound 81, 7-(3,4-dimethoxyphenyl)-N-((1S,4S)-4-(piperazine-1-carbonyl)cyclohexyl) pyrazolo[1,5-a]pyrimidine-2-carboxamide], at least 2 µM; with `COc1ccc(-c2ccnc3cc(C(=O)N[C@H]4CC[C@H](C(=O)N5CCNCC5)CC4)nn23)cc1OC` [Compound 82, 7-(3,4-dimethoxyphenyl)-N-((1R,4R)-4-(piperazine-1-carbonyl)cyclohexyl) pyrazolo[1,5-a]pyrimidine-2-carboxamide], at least 2 µM.
On to `COc1ccc(-c2ccnc3cc(C(=O)N4CCN(C(=O)COC(C)=O)CC4)nn23)cc1OC` [Compound 83, 2-(4-(7-(3,4-dimethoxyphenyl)pyrazolo[1,5-a]pyrimidine-2-carbonyl)piperazin-1-yl)-2-oxoethyl acetate], for which the EC50 is at least 2 µM.
